One assay has as its system Pseudomonas aeruginosa. Nature of the assay: Antibacterial activity against Pseudomonas aeruginosa assessed as zone of inhibition. It counts as functional.
For assay [1], the system named is Escherichia coli. Kind of assay: Antibacterial activity against Escherichia coli assessed as zone of inhibition. It counts as functional.
A further assay relates to Bacillus cereus. Kind of assay: Antibacterial activity against Bacillus cereus assessed as zone of inhibition. It counts as functional.
A further assay relates to Klebsiella aerogenes. Nature of the assay: Antibacterial activity against Enterobacter aerogenes assessed as zone of inhibition. It counts as functional.
A further assay has as its system Bacillus subtilis. Nature of the assay: Antibacterial activity against Bacillus subtilis assessed as zone of inhibition. Type of assay: functional.
Assay [2] has as its system Staphylococcus aureus. Nature of the assay: Antibacterial activity against Staphylococcus aureus assessed as zone of inhibition. It counts as functional.
A further assay concerns Penicillium chrysogenum. Nature of the assay: Antifungal activity against Penicillium chrysogenum assessed as zone of inhibition. It counts as functional.
A further assay relates to Penicillium italicum. Kind of assay: Antifungal activity against Penicillium italicum assessed as zone of inhibition. It counts as functional.
A further assay has as its system Aspergillus ochraceus. Kind of assay: Antifungal activity against Aspergillus ochraceus assessed as zone of inhibition. Type of assay: functional.
For another assay, the system named is Fusarium oxysporum. Kind of assay: Antifungal activity against Fusarium oxysporum assessed as zone of inhibition. It counts as functional.
Assay [3] has as its system Staphylococcus aureus. Nature of the assay: Antibacterial activity against Staphylococcus aureus ATCC 29213 assessed as reduction in bacterial growth. It counts as functional.
In the next assay the test system is RAW264.7. Nature of the assay: Anti-inflammatory activity against mouse RAW264.7 cells assessed as inhibition of LPS-induced NO production at 50 ug/ml relative to control. Type of assay: functional. Further details: scale not given: the % may be the effect or the level left. As to conditions: dose 50 µg/ml.
The test system of assay [4] is Escherichia coli. Nature of the assay: Antibacterial activity against Escherichia coli assessed as bacterial growth inhibition by broth dilution method. Type of assay: functional.
The target of assay [5] is Dual specificity tyrosine-phosphorylation-regulated kinase 1A (Homo sapiens, UniProt Q13627). Nature of the assay: Inhibition of DYRK1A (unknown origin).
Assay [6] is described as follows: Antiproliferative activity against human U87 cells assessed as reduction in cell viability by MTT assay. It counts as functional, cell-based, U-87MG ATCC. As to conditions: U-87 MG. On the technique in general: Tetrazolium dyes change colour on reduction, which living cells bring about.
A further assay concerns Aspergillus niger. Kind of assay: Antifungal activity against Aspergillus niger assessed as zone of inhibition. It counts as functional.
Another assay relates to H69AR. Nature of the assay: Cytotoxicity against human NCI-H69AR cells assessed as reduction in cell viability by SRB assay. It counts as functional, cell-based. On the technique in general: The SRB assay estimates cell density from bound dye.
The subject of a further assay is HuCC-A1. Kind of assay: Antiproliferative activity against human HuCC-A1 cells assessed as reduction in cell proliferation. Type of assay: functional, cell-based.
For a further assay, the system named is MES-SA. Nature of the assay: Cytotoxicity against human MES-SA cells assessed as reduction in cell viability incubated for 72 hrs by MTT assay. It counts as functional, cell-based.
Assay [7] in a line: Inhibition of HIV-1 integrase. Also noted: species or system Human immunodeficiency virus 1.
The target in assay [8] is T1, D(4) dopamine receptor (Homo sapiens) (UniProt P21917).
T1 sequence (whole entry): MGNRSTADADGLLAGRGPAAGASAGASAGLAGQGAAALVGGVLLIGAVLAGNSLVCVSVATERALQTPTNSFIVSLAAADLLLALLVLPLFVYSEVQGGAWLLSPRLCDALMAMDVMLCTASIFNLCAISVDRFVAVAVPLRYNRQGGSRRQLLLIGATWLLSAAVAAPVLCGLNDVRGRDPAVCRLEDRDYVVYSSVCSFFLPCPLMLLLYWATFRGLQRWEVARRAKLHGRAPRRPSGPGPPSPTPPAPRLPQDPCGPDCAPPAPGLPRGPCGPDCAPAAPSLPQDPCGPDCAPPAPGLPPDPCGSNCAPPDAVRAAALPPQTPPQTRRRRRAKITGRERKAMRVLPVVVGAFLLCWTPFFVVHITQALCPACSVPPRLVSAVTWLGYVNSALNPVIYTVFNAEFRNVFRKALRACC
Nature of the assay: Inhibition of human D4 receptor.

In a further assay the test system is Botrytis cinerea. Kind of assay: Antifungal activity against Botrytis cinerea. Type of assay: functional, organism-based.
For assay [9], the system named is Staphylococcus epidermidis. Nature of the assay: Antibacterial activity against Staphylococcus epidermidis assessed as reduction in bacterial growth. Type of assay: functional.
Another assay concerns HepG2. Kind of assay: Anticancer activity against human HepG2 cells by MTT assay. It counts as functional, cell-based.
Assay [10] deals with Escherichia coli. Kind of assay: Antibacterial activity against Escherichia coli assessed as bacterial growth inhibition. It counts as functional.
Assay [11] can be described thus: Antioxidant activity assessed as FRAP radical activity by FRAP assay. Type of assay: functional.
Another assay has as its system Candida albicans. Kind of assay: […] activity against Candida albicans assessed as zone of inhibition at 20 mg/ml. Type of assay: functional. As to conditions: read-out: IZ.
For a further assay, the system named is HCT-116/VM46. Nature of the assay: cells. To be noted: Homo sapiens.

Converted amounts (≈) assume the structure as drawn.

Broadly, the MIC is the lowest concentration found to suppress growth. Broadly, the IC50 is the concentration that gives 50% inhibition. The EC50 is the concentration giving half of the maximal effect.

For `CC1(C)S[C@@H]2[C@H](NC(=O)[C@H](N)c3ccc(O)cc3)C(=O)N2[C@H]1C(=O)O` [AMOXICILLIN], the “inhibition zone (IZ)” value with Pseudomonas aeruginosa is recorded as 11 mm; in the assay on Escherichia coli [1] it was 36 mm; in the assay on Bacillus cereus it was 20 mm; in the assay with Klebsiella aerogenes, 10 mm; in the assay on Bacillus subtilis, 12 mm; in the assay with Staphylococcus aureus [2], 29 mm.

For NYSTATIN, the inhibition zone (IZ) is 24 mm in the assay on Penicillium chrysogenum, 20 mm in the assay with Penicillium italicum, 24 mm with Aspergillus ochraceus and 26 mm with Fusarium oxysporum.

`O=c1oc2ccc3ccccc3c2cc1-c1ccc2c(=O)oc3ccc(Cl)cc3c2n1`: in the assay with Staphylococcus aureus [3], the MIC is 62.5 µM (≈ 26.6 µg/mL). Take `O=C(O)Cc1ccccc1Nc1c(Cl)cccc1Cl` [DICLOFENAC]: in the assay on RAW264.7, the Activity turned out to be 62%. For GENTAMICIN, the MIC in the assay on Escherichia coli [4] was determined as 5 µg/mL.

As to `O=c1oc2cc(O)ccc2c2c1[nH]c1ccc(O)cc12`, the IC50 in assay [5] is 0.0003 µM. As to `O=NN(CCCl)C(=O)NCCCl` [CARMUSTINE], the IC50 in assay [6] came out at 3.9 µg/mL.

Turning to `CCSc1nn2c(=N)c3c(=O)oc4ccccc4c3nc2s1`, the “inhibition zone (IZ)” value in the assay on Aspergillus niger was 15 mm. Turning to `N#CC1=C(N)Oc2c(c(=O)oc3ccccc23)C12C(=O)N(CCCCBr)c1ccccc12` (configuration not stated), the IC50 in assay [6] was determined as 78 µM.

Take `COc1cc(-c2c3n(c4c(=O)oc5cc(O)c(OC)cc5c24)CCc2c-3cc(OC)c(OC)c2O)ccc1O`: the IC50 with H69AR was determined as 4.3 µM; in the assay with HuCC-A1, 3.4 µM. With `O=[Se](O)O` [SODIUM SELENITE], the IC50 in the assay with MES-SA stood at 29 µM. With `N#CC1=C(N)Oc2c(c(=O)oc3ccc(Br)cc23)C12C(=O)Nc1ccccc12` (configuration not stated), the IC50 in assay [6] is 78 µM. For the molecule `COc1ccc(-c2c3c4cc(OC)c(OS(=O)(=O)O)cc4oc(=O)c3n3ccc4cc(OC)c(OC)cc4c23)cc1O`, in [7], the IC50 was found to be 8 µM. As to `COc1cc2c(cc1OC)C1CCN(CCN3CC4CCC(CC4)C3)CC1C(=O)O2` (configuration not stated), the ID50 in [8] turned out to be 0.113 mg/kg. For `C=CCOc1ccc2c(c1)oc(=O)c1c(C)c(C)oc12`, the concentration for a half-maximal effect (EC50) with Botrytis cinerea was found to be 1.72 µg/mL (≈ 6.36 µM). For `O=c1oc2ccc(O)cc2c2c1[nH]c1ccc(O)cc12`, in assay [5], half-maximal inhibition (IC50) required 0.067 µM. As to `N=c1c2c(=O)oc3ccccc3c2ccn1-c1ccccn1`, the MIC in [9] worked out at 50 µg/mL (≈ 173 µM). As to `O=c1oc2ccccc2c2c1C(c1ccc(Br)cc1O)SCCN2` (stereo in doubt; 200), half-maximal inhibition in the assay on HepG2 (IC50) required 58 µM. As for `Cc1cccc2c1oc(=O)c1cc(NC(=O)c3ccccc3)c(=O)oc12`, in the assay on Escherichia coli [10], the MIC is 105 µM (≈ 36.5 µg/mL). With `O=c1c(O)c(-c2ccc(O)c(O)c2)oc2cc(O)cc(O)c12` [QUERCETIN], in [11], the IC50 stood at 53900 µM. With `CCOC(=O)c1nnc2c3c(=O)oc4ccccc4c3nn2c1N`, the zone of inhibition at 20000 µg/mL in the assay with Candida albicans was determined as 10 mm. As for `C=CCOc1ccc2c(c1)oc(=O)c1c(C)coc12`, in the assay on Botrytis cinerea, a half-maximal response (EC50) required 1.72 µg/mL (≈ 6.71 µM).

`CC[C@]1(O)C[C@@H]2CN(CCc3c([nH]c4ccccc34)[C@@](C(=O)OC)(c3cc4c(cc3OC)N(C)[C@H]3[C@@](O)(C(=O)OC)[C@H](OC(C)=O)[C@]5(CC)C=CCN6CC[C@]43[C@@H]65)C2)C1` [VINBLASTINE] yielded an IC50 in the assay with HCT-116/VM46 of 0.002 µM.

The record behind these values is ChEMBL document CHEMBL5230136, “A review: Biologically active 3,4-heterocycle-fused coumarins” (Eur J Med Chem, 2021).
